# Experiments:
# [1] = system: patients with acute gout flare (acute gouty arthritic attack); test: Multicenter, randomized, double-blind, placebo-controlled dose comparison study in acute gout flare: efficacy (target joint pain); format: in vivo, human
# Source text: A sufficient number of patients are screened to enroll and randomize 300 patients (100 patients per treatment group) who meet the criteria of the American College of Rheumatology (ACR) for acute arthritis of gout.
# Efficacy assessment will be made based on patient and Investigator inputs. Patients will record pain severity and sleep interference on a study diary. The severity of pain for each joint affected by the acute gouty arthritic attack will be rated on an 11-point pain intensity numerical rating scale (PI-NRS) that ranges from 0 (“no pain”) to 10 (“worst possible pain”). […] Investigators will provide clinical assessments in the clinic at all Post-Flare Phase study visits, and at medically necessary intervening visits. For these assessments, each of the patient's joints affected by the acute gouty arthritic attack will be examined and signs and symptoms of inflammation will be rated (erythema [absent, present, or not assessable], swelling [0, “none” to 3, “severe”], and tenderness to touch [0, “none” to 3, “severe”]).
# The target joint is identified during data analysis as that joint affected by the acute gout flare with the highest baseline pain score on the patient diary. Ties among maximum joint scores for an individual are resolved by random selection.
# The secondary efficacy variables are assessments of magnitude of pain reduction, time to response, time to complete pain relief, and interference with sleep as recorded on patient diaries by the patient. Signs and symptoms of inflammation per Investigator's clinical assessments of the target joint are evaluated. Time to drop out (use of rescue medications) is also evaluated. Investigator global assessment of response to treatment is assessed.
# Analyses will also be made on an Evaluable patient population with an Evaluable patient defined as one who, in addition to being included in the PP population, completed the randomized treatment course. The ITT population will be used for the evaluation of safety.
# Statistical tests for efficacy analysis are two-tailed with an alpha significance level of 0.05.
# The sensitivity to alternate definitions of response (based both on magnitude of reduction from baseline as well as time point) will be evaluated as secondary endpoints. As additional sensitivity analyses, these tests will also be repeated for the PP and Evaluable populations if the sample sizes differ from the overall ITT population by more than 10%.
# Change in pain intensity, interference with sleep, time to 50% reduction in pain, and time to complete pain relief will be analyzed as continuous variables using analysis of covariance with study site, treatment group, and site by treatment interaction as independent variables for change in pain intensity and interference with sleep, with baseline score as a covariate. For the Investigator's clinical assessment of inflammation (erythema, swelling, and tenderness to touch) and Investigator's global assessment of response to treatment, the treatment groups will be compared using the Mantel-Haenszel chi-square test stratified on study site.
# clinical = details: human, plasma, oral, 1.8 mg, N = 13; for Cmax: low-dose regimen 1.8 mg (2 x 0.6 mg, then 0.6 mg 1 hour later), fasting healthy adults; for Tmax / half-life: low-dose regimen 1.8 mg, healthy adults; for Tmax: time after the initial dose
# Experimental: This study was a single-center, single-period, open-label pharmacokinetic study conducted in healthy subjects under fasting conditions.
# Subjects received 2×0.6 mg tablets initially followed by 1×0.6 mg tablet 1 hour later.
# [2] = low-dose regimen 1.8 mg (2 x 0.6 mg, then 0.6 mg 1 hour later), fasting healthy adults, N = 13
# [3] = low-dose regimen 1.8 mg, healthy adults, N = 13
# [4] = low-dose regimen 1.8 mg, time after the initial dose, healthy adults, N = 13
structure (smiles),measurement,setting,value
"COc1cc2c(c(OC)c1OC)-c1ccc(OC)c(=O)cc1[C@@H](NC(C)=O)CC2 [Colchicine, (−)-N-[(7S,12aS)-1,2,3,10-tetramethoxy-9-oxo-5,6,7,9-tetrahydrobenzo[a]heptalen-7-yl]-acetamide]","Number of responders (>=50% reduction in target joint pain score, no rescue medication) at 24 hours post first dose","[1]; Low dose 1.8 mg over 1 h, N = 74, ITT",28 (37.8) N (%)
same,Number (%) of patients using rescue medication up to and including the 24-hour post first dose assessment,"[1]; Low dose 1.8 mg, N = 74",23 (31.1) n (%)
same,Patients with >=0% improvement in target joint pain score at 24 hours post first dose,"[1]; Low dose 1.8 mg, N = 74",74 (100.0%)
same,Patients with >=10% improvement in target joint pain score at 24 hours post first dose,"[1]; Low dose 1.8 mg, N = 74",47 (63.5%)
same,Patients with >=20% improvement in target joint pain score at 24 hours post first dose,"[1]; Low dose 1.8 mg, N = 74",45 (60.8%)
same,Patients with >=30% improvement in target joint pain score at 24 hours post first dose,"[1]; Low dose 1.8 mg, N = 74",39 (52.7%)
same,Patients with >=40% improvement in target joint pain score at 24 hours post first dose,"[1]; Low dose 1.8 mg, N = 74",36 (48.6%)
same,Patients with >=50% improvement in target joint pain score at 24 hours post first dose,"[1]; Low dose 1.8 mg, N = 74",30 (40.5%)
same,Patients with >=60% improvement in target joint pain score at 24 hours post first dose,"[1]; Low dose 1.8 mg, N = 74",24 (32.4%)
same,Patients with >=70% improvement in target joint pain score at 24 hours post first dose,"[1]; Low dose 1.8 mg, N = 74",20 (27.0%)
same,Patients with >=80% improvement in target joint pain score at 24 hours post first dose,"[1]; Low dose 1.8 mg, N = 74",15 (20.3%)
same,Patients with >=90% improvement in target joint pain score at 24 hours post first dose,"[1]; Low dose 1.8 mg, N = 74",9 (12.2%)
same,Patients with >=100% improvement in target joint pain score at 24 hours post first dose,"[1]; Low dose 1.8 mg, N = 74",8 (10.8%)
same,"Patients achieving at least 40% relief at 24 hrs post-first dose, regardless of pain rescue (FIG. 1)",[1]; low dose 1.8 mg,49%
same,Proportion of patients rescued prior to 24 hours,[1]; low dose 1.8 mg,28.4%
same,Proportion of patients with ≧50% pain reduction at 24 hrs without pain rescue,[1]; low dose 1.8 mg,37.8%
same,Proportion of patients rescued prior to 24 hours,[1]; standard dose 4.8 mg,34.6%
same,Proportion of patients with ≧50% pain reduction at 24 hrs without pain rescue,[1]; standard dose 4.8 mg,32.7%
same,"Cmax, MAX",[2],11.37 ng/mL
same,"Cmax, MIN",[2],3.16 ng/mL
same,Maximum colchicine concentration,"low-dose regimen 1.8 mg, healthy adults",6.2 ng/mL
same,"CL/F, MAX",[3],52676.24 mL/h
same,"CL/F, MEAN",[3],36950.93 mL/h
same,"CL/F, MEDIAN",[3],35444.40 mL/h
same,"CL/F, MIN",[3],24295.73 mL/h
same,"Kel, MAX",[3],0.0502 h⁻¹
same,"Kel, MEAN",[3],0.0326 h⁻¹
same,"Kel, MEDIAN",[3],0.0322 h⁻¹
same,"Kel, MIN",[3],0.0141 h⁻¹
same,"Total AUC0-t, MAX",[3],58.93199 ng·h/mL
same,"Total AUC0-t, MEAN",[3],43.78755 ng·h/mL
same,"Total AUC0-t, MEDIAN",[3],43.94215 ng·h/mL
same,"Total AUC0-t, MIN",[3],28.82145 ng·h/mL
same,"Total AUC∞, MAX",[3],74.08708 ng·h/mL
same,"Total AUC∞, MEAN",[3],52.07006 ng·h/mL
same,"Total AUC∞, MEDIAN",[3],50.78377 ng·h/mL
same,"Total AUC∞, MIN",[3],34.171 ng·h/mL
same,"Varea/F, MAX",[3],1724.36 L
same,"Varea/F, MEAN",[3],1188.72 L
same,"Varea/F, MEDIAN",[3],1149.35 L
same,"Varea/F, MIN",[3],774.19 L
same,"t1/2, MAX",[3],49.20 h
same,"t1/2, MEAN",[3],23.63 h
same,"t1/2, MIN",[3],13.80 h
same,"Tmax, MAX",[4],2.50 h
same,"Tmax, MIN",[4],1.00 h
same,Subjects with a secondary peak within 6 hours after the first dose,"low-dose regimen 1.8 mg, 10 of 13 subjects",77%
same,Cmax,clinical; MEAN,6.19 ng/mL
same,Cmax,clinical; MEDIAN,5.68 ng/mL
same,Tmax,clinical; MEAN,1.81 h
same,Tmax,clinical; MEDIAN,2 h
same,half-life,"clinical; t1/2, MEAN",23.6 h
same,half-life,"clinical; t1/2, MEDIAN",21.6 h

# Reference: US7964647B2 (Mutual Pharmaceutical Company, Inc., priority 2007, dated 2011)
